Three compounds from US9783546B2, “Compounds” (GlaxoSmithKline Intellectual Property Development Limited, priority 2014, dated 2017) can be followed below.

Assay [1] has as its target T1, Lp-PLA2 in human plasma (Homo sapiens, UniProt Q13093).
T1 construct: from tissue; host or cells: pooled human plasma
T1 sequence (Q13093 22-441): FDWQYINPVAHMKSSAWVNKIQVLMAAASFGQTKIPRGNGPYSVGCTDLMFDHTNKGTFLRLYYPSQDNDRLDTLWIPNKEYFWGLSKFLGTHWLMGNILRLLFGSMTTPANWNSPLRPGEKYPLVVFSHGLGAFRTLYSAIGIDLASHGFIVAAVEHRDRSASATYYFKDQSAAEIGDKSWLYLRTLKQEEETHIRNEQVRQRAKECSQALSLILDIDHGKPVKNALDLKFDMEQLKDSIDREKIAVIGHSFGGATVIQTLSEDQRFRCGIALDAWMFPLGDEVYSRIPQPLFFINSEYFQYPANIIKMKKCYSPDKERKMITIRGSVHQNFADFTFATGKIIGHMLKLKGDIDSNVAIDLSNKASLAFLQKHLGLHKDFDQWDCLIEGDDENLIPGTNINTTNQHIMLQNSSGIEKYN
Nature of the assay: Lp-PLA2 Human Plasma assay, Thio-PAF assay. In kind it is biochemical. Conditions: pooled human plasma, 2-thio-PAF substrate; read-out: pIC50 value in the Lp-PLA2 human plasma assays (converted). The source says: (3) Lipoprotein-associated phospholipase A2 (Lp-PLA2) Human Plasma assay-Thio-PAF assay
The human plasma assay utilizes a thioester analog of PAF (phosphatidylcholine), where hydrolysis yields to the formation of a phospholipid containing a free thiol group. The amount of thiol is quantitated continuously by reacting with CPM (7-diethylamino-3-(4′-maleimidylphenyl)-4-methylcoumarin), a maleimide which increases in fluoresence after Michael addition of thiols. This assay may detect the activity of Lp-PLA2 in human plasma, as determined by specific inhibition by Lp-PLA2 inhibitors.
The thio-PAF assay was run as a quenched 15 μL assay. Compounds source plate was prepared by making 1:3 (by volume) serial dilution of the compounds into pure DMSO on 384-well microplate. […] of compounds on compound source plate were transferred to 384 well Greiner 784076 (black) low-volume plates by ECHO liquid dispenser. 8 μL pooled human plasma, which was previously aliquoted and frozen, was added. Plates were centrifuged for 10 sec at 500 rpm. […] Plates were read at ex: 380/em: 485 using Envision microplate reader. […]

The target in assay [2] is T2, recombinant human Lp-PLA2 (Homo sapiens, UniProt Q13093).
T2 sequence (Q13093 22-441): T1 sequence (Q13093 22-441)
Nature of the assay: Recombinant human Lp-PLA2 assay (rhLp-PLA2), PED6 assay. Conditions: PED6 substrate, 30 minutes preincubation; read-out: rhLp-PLA2 (pIC50) (converted). In kind it is biochemical. The source says:
(1) Recombinant human Lp-PLA2 assays (rhLp-PLA2)-PED6 assay
N-((6-(2,4-dinitrophenyl)amino)-hexanoyl)-2-(4,4-difluoro-5,7-dimethyl-4-bora-3a,4a-diaza-s-indacene-3-pentanoyl)-1-hexadecanoyl-sn-glycero-3-phosphoethanolamine, triethylammonium salt (PED6) is a commercially available fluorescently-labeled phospholipid, which is commercially available from Invitrogene and Molecular Probes. There is a quenching para-nitro phenyl (PNP) group in the sn3 position and a Bodipy fluorescein (FL) group in the sn2 position. Upon cleavage with Lp-PLA2, the Bodipy FL group is liberated and then may result in an increase in fluorescence. Inhibitors of Lp-PLA2 therefore prevent this cleavage and no fluorescent increase is observed.
The PED6 assay was run as an unquenched 10 μL assay. The source plate containing the compounds to be tested was prepared by making 1:3 (by volume) serial dilution of the compounds within DMSO on 384-well microplate. Then, 0.01 μL of the compounds on compound source plate were transferred into 384 well Greiner 784076 (black) plates using ECHO liquid dispenser. […] The plates were read for fluorescence intensity at ex: 480/em: 540 using ViewLux microplate imager for Envision spectrofluroimeters. pIC50 data, curve and QC analysis was conducted by using XL fit module in Excel. […]

The test system of assay [3] is proinflammatory (M1) and anti-inflammatory (M2) markers in macrophages. Nature of the assay: Ex vivo analysis of M1 and M2 markers in macrophages of EAE rats by realtime PCR. Details: species or system rat. Conditions: splenic macrophages at day 13 post MBP-immunization and CNS infiltrating macrophages. Here is the method: Ex vivo analysis of proinflammatory (M1) and anti-inflammatory (M2) markers in control and compound treated EAE rats. Splenic macrophages were harvested at day 13 post MBP-immunization and assayed for expression of a variety of markers by realtime PCR. CNS infiltrating cells were harvested and macrophages were analyzed for expression of M1 and M2 markers by realtime PCR.

Assay [4] has as its system experimental autoimmune encephalomyelitis (EAE) rats. Nature of the assay: Rat experimental autoimmune encephalomyelitis (EAE) model, preventive treatment. The note with it: rats immunized with MBP. It is filed as in vivo. As to the method:
A further study was carried out to study the impact of Lp-PLA2 inhibitors on modulating M1/M2 imbalance. In this study, rats were induced to develop experimental autoimmune encephalomyelitis (EAE) by immunization with myelin basic protein (MBP) antigen and treated with a known Lp-PLA2 inhibitor: 5-(9-Methoxy-4-oxo-6,7-dihydro-4H-pyrimido[6,1-a]isoquinolin-2-yl)oxy)-2-(3-(trifluoromethyl)phenoxy)benzonitrile (See PCT application no. PCT/CN2011/001597). In this preventive treatment model, the compound was administered at day 0 (day of immunization) and continued to administer until day 22. The study lasted for 25 days. Rats were subsequently monitored for symptoms of EAE. Rats were immunized with MBP to develop EAE and symptoms were monitored daily. Plasma Lp-PLA2 activity, OxLDL, and LysoPC concentration were determined at different time points through the course of EAE.

Setting [5] is: compound administered day 0 until day 22, plasma.

For `O=c1nc(OCc2cc(F)c(Oc3ccnc(C(F)(F)F)c3)c(F)c2)cc2n1C[C@@H]1CCCN21` [Example 2, (S)-3-((3,5-difluoro-4-((2-(trifluoromethyl)pyridin-4-yl)oxy)benzyl)oxy)-7,8,8a, 9-tetra hydropyrrolo[1′,2′:3,4]imidazo[1,2-c]pyrimidin-1(6H)-one], the IC50 in assay [1] is 20 nM; in assay [2] it was 0.316 nM.

Regarding `COc1ccc2c(c1)CCn1c-2cc(Oc2ccc(Oc3cccc(C(F)(F)F)c3)c(C#N)c2)nc1=O` [5-(9-Methoxy-4-oxo-6,7-dihydro-4H-pyrimido[6,1-a]isoquinolin-2-yl)oxy)-2-(3-(trifluoromethyl)phenoxy)benzonitrile], in assay [3], the M1 markers expression entry is given as “decrease in M1 markers” and the M2 markers expression result was “increase in M2 markers”. For the same compound, the “clinical disease (EAE)” value in assay [4] (compound administered day 0 until day 22) was “reduction in clinical disease”. Moreover, in assay [4] (setting [5]), the “Lp-PLA2 activity in rat EAE plasma” value is “decreased Lp-PLA2 activity” and the “LysoPC levels in rat EAE plasma” value was “decreased”.

Turning to `O=c1nc(OCc2cc(F)c(Oc3ccnc(C(F)(F)F)c3)c(F)c2)cc2n1C[C@H]1CCCN21` [Example 1, (R)-3-((3,5-difluoro-4-((2-(trifluoromethyl)pyridin-4-yl)oxy)benzyl)oxy)-7,8,8a, 9-tetra hydropyrrolo[1′,2′;3,4]imidazo[1,2-c]pyrimidin-1(6H)-one], the IC50 in assay [1] is 7.94 nM; in assay [2], 0.158 nM.
